Among the data in a melting point compilation (Tetko et al.; mined from patent text by program, amines drawn as free bases though some values may be those of a salt) are melting point values, retold here.

The term melting point denotes the temperature of the solid-liquid transition. With `Cc1ccc(-c2cc(Cl)c3ccccc3n2)cc1`, the melting point lay in the range of 75 to 77 °C.
Take `Fc1ccccc1C1=NCc2cnc(-c3ccccc3)n2-c2ccc(Cl)cc21`: the melting point fell in the range of 241 to 243 °C.
The value for `c1ccc(OCCSCc2ncc(-c3ccc(OCCCN4CCCCCC4)cc3)o2)cc1` was 32 to 35 °C; that for `CCc1c(C(=O)C(=O)NC2=CC(=O)OC2)c2ccccc2n1Cc1ccc(Cl)cc1` was 192 to 195 °C.
Consider `C=CCc1ccc(C(=O)CCC(=O)OC)cc1O`, for which the melting point lay in the range of 90 to 92.5 °C.
`COc1ccc2c(c1)c(C=O)cn2CCCCl`: the melting point is 75 to 76 °C.
`Clc1ccc(C=Cc2nc3c(s2)NCCCC3)cc1` showed a melting point of 188 to 189 °C.
Then `N=c1nc(Cl)cc(N)n1O`, with 193 °C.
Then `CC(C)(C)Cn1c(=O)c(=O)[nH]c2cc([N+](=O)[O-])c(N)cc21`, with more than 300 °C; and `Cc1c(-c2ccccc2)oc2c(CS(=O)CCCl)cccc2c1=O` (stereo not given), with 142 to 145 °C; and `CCCCCCCCn1nnc(NC(=O)Nc2c(C(C)C)cccc2C(C)C)n1`, with 139 to 140 °C.
The value for `CCN(C)c1nc(-c2ccc(OC)cc2)nc2sc(C#N)c(C)c12` was 122 to 123 °C; that for `CC(C)N(CCN1C(=O)/C(=N/NC(=O)Nc2ccccc2)c2ccccc21)C(C)C` was 157 to 159 °C.
The compound `CCc1cn(C2CC(I)C(CO)O2)c(=O)[nH]c1=O` (stereo not given) came in with a melting point of 162 to 164 °C.
The value for `Cn1cc(C2(c3c4n(c5ccccc35)CCCCC4)CC(=O)OC2=O)c2ccccc21` (stereo not given) was 257 to 259 °C; that for `CCC(CC)N(Cc1ccc(C(=O)O)cn1)S(=O)(=O)c1ccc(F)cc1` was 145 to 147 °C; that for `Nc1ccc2ccc(Oc3ccccc3Br)nc2n1` was 206 °C.
The compound `COc1cccc(NC(=O)Nc2ccc(N3CCN(C(=O)Nc4ccc(OCCO)cc4C(F)(F)F)CC3)cc2)c1OC` returned a melting point of 135 to 138 °C.
The value for `Cn1nc(C(F)(F)F)c(CSC2=NOC(C)(CCl)C2)c1O` (stereo not given) was 111 to 112 °C; that for `O=C(Nc1ccc(-n2nc(C(F)(F)F)cc2C(F)(F)F)cc1)c1ccc(F)cc1F` was 126 to 128 °C.
`CCc1c(-c2ccc(OCc3ccccc3)cc2)c2c(C(=O)O)c(C(=O)O)c3c(OCc4ccccc4)ccc1n32` gave a melting point of 151 to 161 °C.
Then `O=C(C=C1CC(C(=O)O)Nc2cc(Cl)ccc21)Nc1ccccc1` (racemic), with 118 to 120 °C; and `Cc1c(C(=O)N2Cc3ccccc3Cc3ccccc32)csc1C(N)=O`, with 201 to 204 °C.
Then `O=C(Nc1ccc(Oc2ccc(N3CCC(O)CC3)cc2)cc1)c1ccc(Cl)c(Cl)c1`, with 178 to 180 °C; and `CC(C)(C)c1ccc(Cn2cc(C(=O)C(=O)O)c3cc(-c4cccc(Cl)c4)ccc32)cc1`, with 138 to 139 °C.
Then `N#Cc1ccc(-c2cccc(-c3nc4cc(C#N)ccc4[nH]3)c2O)cc1`, with 318 to 320 °C; and `COc1ccc2c(c1)CN(C(=O)CN1CCCC1)N=C2Cc1c(Cl)cncc1Cl`, with 148 to 150 °C.
`COc1ccc(N2CCCn3c2nc2c(Cl)ccc(C(OCC(F)(F)F)C4CC4)c23)c(C)c1` (stereo not given) had a melting point of 157 to 158 °C.
For the compound `NS(=O)(=O)c1ccccc1S(=O)(=O)N1CCC1`, the melting point was in the range of 121 to 123 °C.
The value for `CCN(CC)C(=O)c1ccc2ccccc2c1-c1ccc(F)cc1` was 103 to 104 °C.
Then `Cc1cccc(NC(=O)NCC(=O)N(Cc2ccccc2)c2ccccc2)c1`, with 175 °C; and `O=C(O)c1cc(=O)n(Cc2ccc(S(=O)(=O)O)cc2S(=O)(=O)O)[nH]1`, with more than 300 °C; and `N#CC1CN1C(=O)c1cc2ccccc2o1` (stereo not given), with 92 to 94 °C.
The value for `CC(=O)N1CCc2cc(CC(C)Br)cc(C#N)c21` (stereo not given) was 115 to 117 °C.
Regarding `CC#CCOc1ccc(S(=O)(=O)N(C)C(C(=O)NO)c2ccc(OCCCNC(=O)OCCCC)cc2)cc1` (stereo not given), the melting point lay within 50 to 55 °C.
As for `CN1C[C@H](CN2CCC(O)(c3ccc(Cl)cc3)CC2)C=C2c3cccc4[nH]c(Cl)c(c34)C[C@H]21`, the melting point was more than 192 °C.
In turn, `NC(=O)C1=CCCNC1` showed a melting point of 122 to 124 °C.
Then `CSc1ccc(CSc2nnc(-c3ccc4ncsc4c3)o2)cc1C(F)(F)F`, with 122 to 123 °C; and `Cc1ccc(S(=O)(=O)n2c(I)cc3cccnc32)cc1`, with 105 to 107 °C; and `O=C(NCCCS(=O)c1ccncc1)c1cccs1` (stereo not given), with 101 to 102 °C.
Compound `CC(C)(C)NCCOp1oc2c(C(C)(C)C)cc(C(C)(C)C)cc2c2cc(C(C)(C)C)cc(C(C)(C)C)c2o1` returned a melting point of 135 to 138 °C.
The value for `CN=c1[nH]c(-c2cc(C)c(OCCCc3cc(C)no3)c(C)c2)no1` was 126 to 127 °C; that for `CC(F)c1ncnc(NCc2ccc(C(C)(C)C)cc2)c1I` (stereo not given) was 114 to 115 °C.
Turning to `Clc1ccc(-c2cc(C3CCN(Cc4ccccc4Cl)CC3)n[nH]2)cc1`, the melting point was 137 to 139 °C.
Then `CC(NC(=O)c1cc(OCC(F)(F)F)ccc1OCC(F)(F)F)C1CCCCN1` (stereo not given), with 95 to 97 °C; and `CCOC(=O)Cn1ncc2c(Br)c(OC)ccc21`, with 106 to 107 °C.
As to `CC(=O)c1c(N)c(-c2ccccc2)n(C)c1C`, the melting point lay within 124 to 126 °C.
Then `CCCc1nn(-c2ccc(C(F)(F)F)cn2)cc1CCCOc1ccc(OC)c(CCC(=O)O)c1`, with 104 to 106 °C; and `O=C1[C@H]2CCC[C@H]2N(C(=O)Cn2cnc3ccccc32)c2ccccc2N1Cc1ccccc1` (relative stereo), with 188 to 189 °C; and `O=C(Nc1ccccc1Cl)Oc1ccc2c(c1)N(Cc1ccccc1)CCC2`, with 145 °C.
The value for `CNc1ccc2cnc(S(C)=O)nc2n1` (stereo not given) was 185 °C.
In turn, `CC(C)(C)CC(C)(C)c1cc(CO)c(O)c(CO)c1` yielded a melting point of 76 to 77 °C.
The compound `O=S(=O)(F)c1cc(S(=O)(=O)F)cc(S(=O)(=O)F)c1` had a melting point of 166 to 168 °C.
As for `CCc1cc(OCc2ccc(-c3ccccc3-c3nnn(C(c4ccccc4)(c4ccccc4)c4ccccc4)n3)cc2)c2nc(OC)ccc2n1`, the melting point was in the range of 145 to 148 °C.
Compound `C=C(CCC(C)C1CCC2(O)C3=C(C(=O)CC12C)C1(C)CCC(=O)C(C)C1CC3O)C(C)C(=O)O` (stereo not given) yielded a melting point of 175 to 177 °C.
The value for `COCOCc1nc(N)c2nccnc2n1` was 129 to 131 °C; that for `CN(C)c1ccc(C(=O)C(F)(F)c2ccccc2)cc1` was 115 to 116 °C; that for `NC(=O)c1c(Cl)cc(Cl)c(OCCCC(=O)O)c1Cl` was 165 to 166 °C.
The value for `Cc1cnc2c(NC(=O)c3c(Cl)cccc3Cl)ccc(C)c2c1N1CCN(C)C1=O` was more than 300 °C; that for `CCCc1nc2c(N)nc3cc(-c4cccnc4)ccc3c2n1CCCCNC(=O)OC(C)(C)C` was 136 to 138 °C; that for `O=C(CN1CCN(C(=O)OCc2ccccc2)CC1)Nc1ccccn1` was 78 to 80 °C.
`CCn1c(=O)c2[nH]c(/C=C/c3ccc(OC)c(OC)c3OC)nc2n(CC)c1=O` came in with a melting point of 276 to 277 °C.
In the case of `CCC(CC)Oc1cc(C)nc(Oc2c(C)cc(C(=O)O)cc2C)c1C`, the melting point was found to be 168 °C.
The value for `CC(C)Cc1ccc(C2(c3ccccc3)OC(=O)C(O)=C2O)cc1` (stereo not given) was 138 to 139 °C; that for `O=C(NNC(=O)c1ccccn1)c1ccccn1` was 224 to 225 °C; that for `CCC(CC)(C(=O)N(C)C)n1cc(C)c(-c2ccccc2)n1` was 135 to 136 °C.
The value for `COc1ccc(CCC(=O)Nc2c(C)c(C)c3c(c2C)C(c2ccc(C(C)C)cc2)C(C)(C)O3)cc1` (stereo not given) was 188 to 191 °C; that for `CCOc1cc(C)ccc1NC1CCN(CCCCNC(=O)c2ccc(-c3ccc(C(F)(F)F)cc3)cc2)CC1` was 162 °C; that for `COc1ccccc(NC(=O)C2=C(O)c3ccccc3S(=O)(=O)N2C)c1=O` was 243 to 247 °C.
Then `COc1ccc(C2=NN(Cc3ccc(C(=O)O)cc3)C(=O)[C@H]3CCCC[C@@H]23)cc1OC` (relative stereo), with 135 to 139 °C; and `FC(F)(F)c1nnc2ccc(-c3ccccc3)nn12`, with 183 to 184 °C; and `Cc1cccc(C(=O)CSC(=S)Nc2ccc(Cl)cn2)c1`, with 126 °C.
`CN1C[C@H](CN2CCN(C(c3ccccc3)c3ccccc3)CC2)C[C@@H]2c3cccc4[nH]c(Cl)c(c34)C[C@H]21` showed a melting point of 250 °C.
`CN(CCc1ccc(NC(N)=S)cc1)Cc1ccccc1` gave a melting point of 119 to 122 °C.
For the compound `C(=Cc1ccc(-c2nnn[nH]2)cc1)c1ccc(OCc2ccc3ccccc3n2)cc1`, the melting point is 241 to 243 °C.
Then `CCCc1c(C#N)ccc(NC(=NC#N)Nc2cccc(Cl)c2Cl)c1O`, with 143 to 147 °C; and `CCCCC1(Cc2c(F)cccc2Cl)NC=C(C=O)N1` (stereo not given), with 88 to 90 °C; and `COc1ccc(-c2nc(C(=O)Nc3c(C)cccc3C)c[nH]2)cc1OC1CCCC1`, with 118 to 122 °C.
With `OCC1(O)CSC(=S)N1c1ccccn1` (stereo not given), the melting point lay within 134 to 135 °C.
In turn, `O=C(Cc1ccccc1)N1CCCSC1=C[N+](=O)[O-]` showed a melting point of 121 to 122 °C.
Regarding `CC(C)c1ccc(C(=O)C2=C(O)C(=O)N(c3cccn(C)c3=O)C2c2ccc(OC(F)(F)F)cc2)cc1` (stereo not given), the melting point came to 207 °C.
The value for `CCCCCS(=O)(=O)NC(=O)/C=C/c1ccc(OCCO[Si](C(C)C)(C(C)C)C(C)C)cc1Oc1ncc(C(F)(F)F)cc1Cl` was 106 to 108 °C; that for `Cc1nc2cccc(OCC(C)(C)C(=O)NCC3CC3)c2c(N)c1C(=O)O` was 177 to 179 °C; that for `CCCOc1ccc(C2=NN(C(=O)Nc3ccc(C(F)(F)F)cc3)CC2N(CCC)C(=O)OCC(Cl)(Cl)Cl)cc1` (stereo not given) was 162 to 163 °C.
Then `Cc1cc(-n2ccc(OCc3ccc(C(F)(F)F)cc3)cc2=O)sc1C(=O)NCc1ccccc1`, with 225 to 227 °C.
